Key:
[1] = system: paternal UBE3A-YFP; assay: paternal UBE3A-YFP unsilencing, high-content imaging in mouse primary neurons (Ube3a m+/pYFP); type: cell-based; details: for Emax / EC50: Mus musculus, 72 h, mean ± SEM; for Emax: Neuron, highest concentration with at least 90% neurons alive, read-out: EMAX (% patUBE3A-YFP+); for EC50: Primary neuron, n = 3; for capability to unsilence paternal Ube3a (analog test): mouse primary neurons, up to 5 μM
Experimental: We aimed to identify novel unsilencers of paternal Ube3a by employing a previously developed high-content small molecule screen. This screen was performed in primary neurons derived from knock-in mice harboring a yellow fluorescent protein (YFP) fused to the paternal allele of Ube3a[25], allowing for fluorescence-based identification of the paternal allele-specific expression of UBE3A-YFP (detected by a GFP antibody enhancement) (Fig. 1a and Supplementary Table 1). We screened >2800 compounds from a Pfizer chemogenetic library, which contains small molecules selected to cover a broad spectrum of pharmacological space. We screened small molecules at 1 μM concentration and used 0.3 μM topotecan, a topoisomerase inhibitor that can downregulate the Ube3a-ATS and unsilence the paternal Ube3a, as a positive control (Fig. 1b)[10]. Small molecules that increase the UBE3A-YFP signal represent putative paternal Ube3a unsilencers.
(§1) Immunofluorescence for high-content imaging analysis was performed as previously described with slight modifications. Following drug treatment at DIV7, primary neurons were fixed at DIV10 with 4% paraformaldehyde in PBS at room temperature (RT) for 10 min. After three brief washes in PBS, neurons were permeabilized with PBS/1% Triton-X-100 at RT for 10 min, followed by blocking with PBS including 5% normal goat serum and 0.2% Triton-X-100 (NGST) at RT. […] All acquired images were analyzed by CellProfiler[48]. The mean GFP signal from each drug-treated well was normalized to the average mean GFP signal from DMSO-treated neurons. […] Fluorescent images were acquired using a Nikon Ti2 eclipse fluorescence microscope (Nikon Instruments Inc.) and analyzed using Nikon NIS-Elements software (Nikon Instruments Inc.). Antibody-enhanced UBE3A-YFP fluorescence intensities were determined from DAPI and NeuN double-positive neurons in drug-treated wells and normalized to neurons in DMSO-treated wells. The cytotoxicity of a compound was determined by calculating the percentage of neurons (DAPI and NeuN double-positive cells) alive in drug-treated wells compared to the DMSO-treated wells. For determining the effectiveness of unsilencing, the percent neurons expressing GFP signal in neurons (DAPI and NeuN double-positive cells) in drug-treated wells was thresholded such that the percent GFP positive neurons in DMSO-treated wells was set to ~5%. Concentrations where more than 10% of neurons were dead compared to DMSO-treated wells were manually removed and the last included data point was set as a maximum efficacy. Sigmoidal curve fitting for the dose-response analysis was performed using GraphPad Prism software version 8.0 (GraphPad Software).

[2] = cytotoxicity (% viable DAPI/NeuN neurons vs DMSO) in mouse primary neurons; type: cell-based; details: primary cortical neurons from E15.5 mouse embryos, mean ± SEM, n = 3
Experimental: as §1

[3] = system: Ube3a-ATS; assay: quantitative RT-PCR of Ube3a-ATS in Ube3a m-/p+ primary neurons; type: cell-based, mouse; details: 72 h at DIV7, 0.3 µM topotecan, 1 µM (S)- or (R)-PHA533533, 0.1 µM 2, 0.1 µM 3, 0.3 µM (±)-4, 5 µM (S,R)-5
Experimental: Next, 1 ml of Neurobasal Plus medium (A3582901, ThermoFisher) containing 5% FBS (TMS-013-B; MilliporeSigma) was added to the cortical mixture to deactivate the papain and subsequently triturated. […] Isolated cortical neurons were plated onto poly-D-lysine coated 384-well plates at 2 × 10^4 cell/well for screening and dose-response assays, or 6-well plates at 1 × 10^6 cell/well for molecular and biochemical assays (western blot, ASO-dependent knock-down, and quantitative RT-PCR).

[4] = system: UBE3A protein; assay: western blot of UBE3A protein in Ube3a m-/p+ primary neurons; type: cell-based, mouse; details: 72 h at DIV7, 0.3 µM topotecan, 1 µM (S)-PHA533533, 0.1 µM 3, 0.3 µM (±)-4
Experimental: 2’ MOE gapmer antisense oligonucleotides (ASOs) designed to target mouse Cdk2 sequence […], Cdk5 sequence […], Top1 sequence […], and scrambled […] sequence as a negative control (Integrated DNA Technologies) were formulated in water and added to cultured cortical neurons grown on 6-well plates at DIV5 at a final concentration of 10 μM. Neurons were further cultured and treated at DIV7 with vehicle (0.1% DMSO) or the indicated compounds for 72 h. For western blot analysis, neurons were washed once with PBS and then lysed using RIPA buffer (50 mM Tris-HCl pH 8.0, 150 mM NaCl, 1% NP−40, 0.5% Na-deoxycholate, 0.5% SDS) and protease inhibitor cocktail (P8340, MilliporeSigma) on ice.

[5] = biological target: T1, TOP1 (Homo sapiens, UniProt P11387); assay: TOP1-mediated DNA relaxation assay; type: biochemical; details: 3 μM topotecan; increasing concentrations of (S)- and (R)-PHA533533; vs DMSO
T1 construct: purchased TopoGEN
T1 sequence (P11387 1-765): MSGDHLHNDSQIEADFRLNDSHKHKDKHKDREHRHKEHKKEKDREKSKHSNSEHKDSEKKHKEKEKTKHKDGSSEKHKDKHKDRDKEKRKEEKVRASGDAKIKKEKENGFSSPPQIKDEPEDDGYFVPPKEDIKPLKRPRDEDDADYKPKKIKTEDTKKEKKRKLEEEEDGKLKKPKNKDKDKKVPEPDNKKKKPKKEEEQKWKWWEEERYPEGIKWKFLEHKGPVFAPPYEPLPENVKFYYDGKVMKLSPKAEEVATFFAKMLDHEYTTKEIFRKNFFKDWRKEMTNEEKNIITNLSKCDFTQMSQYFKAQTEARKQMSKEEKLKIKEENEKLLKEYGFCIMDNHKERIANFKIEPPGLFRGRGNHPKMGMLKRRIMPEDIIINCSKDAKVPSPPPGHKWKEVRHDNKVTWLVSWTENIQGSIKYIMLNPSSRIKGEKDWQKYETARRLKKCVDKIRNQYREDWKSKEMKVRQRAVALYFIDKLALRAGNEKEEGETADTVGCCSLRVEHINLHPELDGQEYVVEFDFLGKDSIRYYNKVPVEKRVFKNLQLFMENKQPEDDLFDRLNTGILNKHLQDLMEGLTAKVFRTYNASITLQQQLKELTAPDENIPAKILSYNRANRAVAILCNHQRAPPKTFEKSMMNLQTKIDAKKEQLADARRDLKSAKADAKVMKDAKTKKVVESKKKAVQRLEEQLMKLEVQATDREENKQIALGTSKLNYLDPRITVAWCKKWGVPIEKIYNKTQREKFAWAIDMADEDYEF
From the text: […]. […] […]. […] […]. […] […].
The Pfizer chemogenetic library and PHA533533 derivatives were provided by the Compound Transfer Program (CTP) at Pfizer. Topotecan hydrochloride salt was purchased from Cayman Chemicals (Item No. 14129). […] […]. The Human Topoisomerase I Assay Kit was purchased from TopoGEN and performed according to the manufacturer’s protocols.

SMILES | Emax [1] [%] | EC50 [1] [nM] | capability to unsilence paternal Ube3a (analog test) [1] | CC50 at 72 h [2] [nM] | relative quantity of Ube3a-ATS vs DMSO [3] | UBE3A protein levels vs DMSO [4] | paternal UBE3A-YFP immunofluorescent signal [1] | inhibition of TOP1 catalytic activity to relax supercoiled DNA [5] | relative quantity of Ube3a-ATS vs DMSO ([3]; listed as compound 2)
CC(C(=O)Nc1cc(C2CC2)[nH]n1)c1ccc(N2CCCC2)cc1 (racemic) [Compound (±)-4] | 65.7 ± 15.4 | 260 ± 100 | could unsilence paternal Ube3a | 1460 ± 240 | downregulated | significantly increased | – | – | –
C[C@@H](C(=O)Nc1cc(C2CC2)[nH]n1)c1ccc(N2CCCC2=O)cc1 [(R)-PHA533533] | – | – | – | – | – | – | minimal UBE3A-YFP immunofluorescent signal | had no effect on the TOP1 activity | –
O=C(Cc1ccc2ccccc2c1)Nc1cc(C2CC2)[nH]n1 [Compound 2] | 71.4 ± 7.34 | 140 ± 20 | could unsilence paternal Ube3a | 570 ± 90 | downregulated | – | – | – | did not reach statistical significance
O=C(Cc1ccc(-c2ccccc2)cc1)Nc1cc(C2CC2)[nH]n1 [Compound 3] | 43.5 ± 8.24 | 100 ± 10 | could unsilence paternal Ube3a | 300 ± 30 | downregulated | significantly increased | – | – | –
CC(C(=O)Nc1cc(C2CC2)[nH]n1)c1ccc(N2CCC(O)C2=O)cc1 [Compound (S,R)-5] | 58.3 ± 9.24 | 5300 ± 370 | could unsilence paternal Ube3a | 12800 ± 780 | downregulated | – | – | – | –

From paper PMC11231141, “Ube3a unsilencer for the potential treatment of Angelman syndrome” (Nature Communications, 2024)
